# Reference: ChEMBL document CHEMBL6182932, “Potent Cyclic Peptide Inhibitors Disrupt the FANCM-RMI Interaction” (J Med Chem, 2025)
# Calls of active or inactive are those of the source. The calls are words filed in the database; no cut-off is given here. Positions of bridges follow the written chain, without caps; N, C: chain ends. Residues, ends and D or L forms follow the SMILES beside them.
# Experiments:
# [1] = Binding affinity to N-terminal 6His/Avi-tagged biotinylated RMI1/2 (unknown origin) extracted from Escherichia coli BL21 (DE3) cells assessed as dissociation constant by SPR analysis; design: species or system Homo sapiens
# [2] = Displacement of 5-TAMRA-SRDLFSVTFDLGFCSPDSDD-NH2 from recombinant N-terminal 6His/SUMO-tagged RMI1/2 (unknown origin) extracted from Escherichia coli BL21 (DE3) cells incubated for 1 hrs by competitive fluorescence polarization assay; design: species or system Homo sapiens; conditions: for Activity: Homo sapiens
# [3] = Proteolytic stability in Tris-HCl buffer at pH 7.8 assessed as alpha-chymotrypsin (unknown origin) mediated compound degradation at 20 uM incubated for 5 hrs by HPLC analysis; format: ADME; conditions: human, pH 7.8, 5 h
# U2OS = assay: Disruption of FANCM-RMI1/2 protein-protein interaction in human U2OS cells assessed as reduction in FANCM pull down at 100 uM incubated for 4 hrs by co-immunoprecipitation based Western blot analysis; format: cell-based
# Homo sapiens = species on record: Homo sapiens; assay: Binding affinity to N-terminal 6His/Avi-tagged biotinylated RMI1/2 (unknown origin) extracted from Escherichia coli BL21 (DE3)cells by SPR analysis
IC50 [2] [nM],Molecule,also measured
54,CC[C@H](C)[C@@H]1NC(=O)[C@H](CO)NC(=O)[C@H](Cc2ccc(O)cc2)NC(=O)CSC[C@@H](C(N)=O)NC(=O)[C@@H]2CCCN2C(=O)[C@H]([C@@H](C)CC)NC(=O)[C@H](CO)NC(=O)[C@H](Cc2ccc(O)cc2)NC(=O)[C@H](Cc2ccc(O)cc2)NC(=O)[C@H](CCCCN)NC(=O)[C@H](CC(=O)O)NC(=O)[C@H](Cc2ccccc2)NC(=O)[C@H](CC(C)C)NC1=O ({CH2CO}-YSILFDKYYSIPC-NH2; thioether N-13),Kd [1]: 2.5 nM; Stability [3]: Stable; Activity (U2OS): Active
440,Ac-YSILFAKYYSIPC-NH2,
> 5000,Ac-YSILFDKYYSIPC-NH2,
700,Ac-ASILFDKYYSIPC-NH2,
95,Ac-YSILFDAYYDSIPC-NH2,
78,CC(C)C[C@@H]1NC(=O)[C@H](CCCNC(=N)N)NC(=O)[C@H](Cc2ccc(O)cc2)NC(=O)CSC[C@@H](C(N)=O)NC(=O)[C@@H]2CCCN2C(=O)[C@H](CC(C)C)NC(=O)[C@H](CCCCN)NC(=O)[C@H](Cc2ccc(O)cc2)NC(=O)[C@H]([C@@H](C)O)NC(=O)[C@H](CCC(N)=O)NC(=O)[C@H](Cc2ccccc2)NC(=O)[C@H](Cc2ccccc2)NC(=O)[C@H](Cc2c[nH]c3ccccc23)NC1=O ({CH2CO}-YRLWFFQTYKLPC-NH2; thioether N-13),Kd [1]: 10 nM
> 5000,Ac-YSILFDKYASIPC-NH2,
115,Ac-YAILFDKYYSIPC-NH2,
114,Ac-YSILFDKYYSIAC-NH2,
4500,CC[C@H](C)[C@H](NC(=O)[C@H](CO)NC(=O)[C@H](Cc1ccc(O)cc1)NC(=O)[C@H](Cc1ccc(O)cc1)NC(=O)[C@H](CCCCN)NC(=O)[C@H](CC(=O)O)NC(=O)[C@H](Cc1ccccc1)NC(=O)[C@H](CC(C)C)NC(=O)[C@H](C)NC(=O)[C@H](CO)NC(=O)[C@H](Cc1ccc(O)cc1)NC(C)=O)C(=O)N1CCC[C@H]1C(=O)N[C@H](CS)C(N)=O,
> 5000,CC[C@H](C)[C@H](NC(=O)[C@H](CC(=O)O)NC(=O)[C@@H]1CSCC(=O)N[C@@H](Cc2ccc(O)cc2)C(=O)N[C@@H](Cc2ccc(O)cc2)C(=O)N[C@@H](CCCCN)C(=O)N2CCC[C@H]2C(=O)N[C@@H]([C@@H](C)O)C(=O)N1)C(=O)N[C@H](C(=O)N[C@@H](CC(C)C)C(=O)N[C@@H](Cc1ccccc1)C(=O)N[C@@H](Cc1c[nH]c2ccccc12)C(=O)N[C@@H](CO)C(N)=O)[C@@H](C)CC ({CH2CO}-YYKPTCDIILFWS-NH2; thioether N-6),Activity (Homo sapiens): inactive
338,Ac-YSILFDKAYSIPC-NH2,
,CC[C@H](C)[C@@H]1NC(=O)[C@H](Cc2ccccc2)NC(=O)[C@H](CO)NC(=O)[C@H]([C@@H](C)CC)NC(=O)[C@H](Cc2ccc(O)cc2)NC(=O)[C@H](CC(=O)O)NC(=O)[C@@H]2CCCN2C(=O)[C@H](CCCCN)NC(=O)[C@H](CC(C)C)NC(=O)CSC[C@@H](C(N)=O)NC(=O)[C@H](Cc2ccc(O)cc2)NC(=O)[C@H](Cc2ccc(O)cc2)NC(=O)[C@H](CO)NC1=O ({CH2CO}-LKPDYISFISYYC-NH2; thioether N-13),Activity [2]: inactive
104,CC[C@H](C)[C@@H]1NC(=O)[C@H](Cc2ccc(O)cc2)NC(=O)CSC[C@@H](C(=O)N[C@@H](CC(C)C)C(=O)N[C@@H](Cc2c[nH]c3ccccc23)C(=O)N[C@@H](CO)C(N)=O)NC(=O)[C@H](Cc2ccccc2)NC(=O)[C@H](CCCCN)NC(=O)[C@H]([C@@H](C)CC)NC(=O)[C@H](C(C)C)NC(=O)[C@H]([C@@H](C)O)NC(=O)[C@H](CC(=O)O)NC(=O)[C@H]([C@@H](C)O)NC(=O)[C@H](Cc2c[nH]c3ccccc23)NC(=O)[C@H](CCCNC(=N)N)NC(=O)[C@H](CC(N)=O)NC(=O)[C@H]([C@@H](C)O)NC1=O ({CH2CO}-YITNRWTDTVIKFCLWS-NH2; thioether N-14),Kd [1]: 2 nM
> 5000,Ac-YSILADKYYSIPC-NH2,
69,Ac-YSILFDKYYAIPC-NH2,
,CC[C@H](C)[C@@H]1NC(=O)[C@H](CC(=O)O)NC(=O)CSC[C@@H](C(N)=O)NC(=O)[C@H](CO)NC(=O)[C@H](Cc2ccccc2)NC(=O)[C@H](Cc2ccc(O)cc2)NC(=O)[C@@H]2CCCN2C(=O)[C@H]([C@@H](C)CC)NC(=O)[C@H](Cc2ccc(O)cc2)NC(=O)[C@H](CO)NC(=O)[C@H](CC(C)C)NC(=O)[C@H](Cc2ccc(O)cc2)NC(=O)[C@H](CCCCN)NC1=O ({CH2CO}-DIKYLSYIPYFSC-NH2; thioether N-13),Activity [2]: inactive
999,Ac-YSILFDKYYSAPC-NH2,
496,Ac-YSIAFDKYYSIPC-NH2,
